# Values of other authors, collected in US20080097086A1, “Process for preparing anti-tumor oligosaccharide material from chitosan” (TENWELL BIOTECHNOLOGY LIMITED, priority 2006, published 2008).
# Several values for one entry are separate records, joined by “and”; a condition that tells them apart may be missing. Equal values may be shown once.
# Columns and labels:
# [1] = tested on: fibrosarcoma (Meth-A) solid tumor cells
# [2] = tested on: S180; settings: intravenous, S180-implanted ddY mice
substance,measurement,setting,value
chitohexaose,dose displaying the strongest effect,[1]; Meth-A solid tumor,10 mg/kg
same,inhibition of Meth-A solid tumor,[1]; in vivo,significant inhibition
same,inhibitory rate on tumor growth,"[2]; 3 times at 100 mg/Kg/d, after seven days, 100 mg/kg/day",85% and 93%
same,control of tumor growth,[2]; increased to 5 times,complete control of tumor growth
